Experimental data from US20250230193A1, “CYCLIC COMPOUND HAVING SELECTIVE KRAS INHIBITORY EFFECT ON HRAS AND NRAS” (CHUGAI SEIYAKU KABUSHIKI KAISHA, priority 2022, published 2025).
*1 amine or outer side, *2 acyl side, *3 side chain or, on linkers, in order; H or OH if unused. Where a SMILES comes first, the peptide text is derived from it. Bridges are numbered along the chain shown (N, C = ends). [ ]: non-standard residue; d: D form. The star is where a group is joined. hPhe(3-Cl-4-CF3) = N[C@@H](CCc1ccc(C(F)(F)F)c(Cl)c1)C(=O)O; NPrPhe(4-CF3) = CCCN[C@@H](Cc1ccc(C(F)(F)F)cc1)C(=O)O; X50 = C=CCN([C@@H](Cc1ccc(C)cc1)C(=O)[*:2])[*:1]; NMeGly(cPent) = CN[C@H](C(=O)O)C1CCCC1; Pro(4,4-F2) = O=C(O)[C@@H]1CC(F)(F)CN1; NMeAllylGly = C=CC[C@H](NC)C(=O)O; Hyp = O=C(O)[C@@H]1C[C@@H](O)CN1; NMeD = CN[C@@H](CC(=O)O)C(=O)O; NMeL = CN[C@@H](CC(C)C)C(=O)O; Morpholide = C1CN(*)CCO1; Ac5c = NC1(C(=O)O)CCCC1; Ac4c = NC1(C(=O)O)CCC1; NEtG = CCNCC(=O)O; Sar = CNCC(=O)O

What was measured:
[1] = biological target: GDP-bound NRAS wild-type protein (Homo sapiens, UniProt P01111); assay: Binding to NRAS by surface plasmon resonance (SPR), Single Cycle Kinetics
Chain of GDP-bound NRAS wild-type protein (P01111 whole entry): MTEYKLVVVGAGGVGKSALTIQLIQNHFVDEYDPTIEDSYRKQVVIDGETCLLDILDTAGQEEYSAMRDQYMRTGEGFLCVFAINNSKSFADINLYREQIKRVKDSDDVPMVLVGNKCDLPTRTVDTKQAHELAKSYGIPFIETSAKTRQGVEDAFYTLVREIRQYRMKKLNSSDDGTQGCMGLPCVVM

[2] = biological target: GDP-bound HRAS wild-type protein (Homo sapiens, UniProt P01112); assay: Binding to HRAS by surface plasmon resonance (SPR), Single Cycle Kinetics
Chain of GDP-bound HRAS wild-type protein (P01112 whole entry): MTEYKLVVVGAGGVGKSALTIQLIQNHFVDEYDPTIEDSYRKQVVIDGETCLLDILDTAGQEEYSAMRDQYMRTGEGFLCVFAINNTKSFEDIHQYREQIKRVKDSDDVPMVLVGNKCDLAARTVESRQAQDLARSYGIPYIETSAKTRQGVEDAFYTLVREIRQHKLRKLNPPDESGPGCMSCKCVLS

[3] = SPR, GDP-bound wild-type proteins

SMILES | NRAS/KRAS (ratio of KD for GDP-bound NRAS wild-type to KD for KRAS) ([1]; SPR) | HRAS/KRAS (ratio of KD for GDP-bound HRAS wild-type to KD for KRAS) ([2]; SPR) | further results
CCC[C@H]1C(=O)N[C@@H]([C@@H](C)CC)C(=O)N(C)CC(=O)N(C)[C@H]2C/C=C\CCN(C2=O)[C@@H](Cc2ccc(C)cc2)C(=O)N(C)CC(=O)N[C@@H](CCc2cc(F)c(C(F)(F)F)c(F)c2)C(=O)N2C[C@H](CC)C[C@H]2C(=O)NC2(CCCC2)C(=O)N(C)[C@@H](C2CCCC2)C(=O)N(C)[C@H](C(=O)N(C)C)CC(=O)N1C [PP2216] |  |  | NRAS/KRAS (ratio of KD value with respect to NRAS to KD value with respect to KRAS) ([1]; SPR, GDP-bound NRAS wild-type vs GDP-bound KRAS wild-type): A (a compound having 10 or more and less than 20 is denoted as A); HRAS/KRAS (ratio of KD value with respect to HRAS to KD value with respect to KRAS) ([2]; SPR, GDP-bound HRAS wild-type vs GDP-bound KRAS wild-type): A (a compound having 10 or more and less than 20 is denoted as A)
CCCN1C(=O)CN(C)C(=O)CN(CC)C(=O)[C@H]([C@@H](C)CC)NC(=O)[C@H](CC(C)C)N(C)C(=O)C[C@@H](C(=O)N2CCOCC2)NC(=O)[C@H](C2CCCC2)N(C)C(=O)C2(CCCC2)NC(=O)[C@@H]2C[C@@H](OCC)CN2C(=O)[C@H](CCc2ccc(C(F)(F)F)c(Cl)c2)NC(=O)CN(C)C(=O)[C@@H]1Cc1ccc(C(F)(F)F)cc1 [PP0335] ([NMeL]I[NEtG][Sar][NPrPhe(4-CF3)][Sar][hPhe(3-Cl-4-CF3)][Hyp](Et)[Ac5c][NMeGly(cPent)]D-Morpholide; lactam N-11) | B (a compound having 3 or more and less than 10 is denoted as B) | C (A compound having a KD ratio of 0.1 or more and less than 3 is denoted as C) | 
CCC[C@H]1C(=O)N[C@@H]([C@@H](C)CC)C(=O)N(C2CC2)CC(=O)N(C)[C@H]2C/C=C\CCN(C2=O)[C@@H](Cc2ccc(C(F)(F)F)cc2)C(=O)N(C)CC(=O)N[C@@H](CCc2cc(F)c(C(F)(F)F)c(F)c2)C(=O)N2C[C@H](OCC)C[C@H]2C(=O)N(C)C2(CCC2)C(=O)N(C)[C@@H](C2CCCC2)C(=O)N(C)[C@H](C(=O)N2CCCCC2)CC(=O)N1C [PP3110] |  |  | NRAS/KRAS (ratio of KD value with respect to GDP-bound NRAS wild-type protein to KD value with respect to KRAS) [1, 3]: A (a compound having 10 or more and less than 20 is denoted as A); HRAS/KRAS (ratio of KD value with respect to GDP-bound HRAS wild-type protein to KD value with respect to KRAS) [2, 3]: A (a compound having 10 or more and less than 20 is denoted as A)
CCO[C@@H]1C[C@H]2C(=O)NC3(CC(C)(C)C3)C(=O)N(C)[C@@H](C(CC)CC)C(=O)N(C)[C@H](C(=O)N3CCCCC3)CC(=O)N(C)[C@H]3CCC/C=C/c4ccc(cc4)C[C@@H](C(=O)N(C)CC(=O)N[C@@H](CCc4cc(F)c(C(F)(F)F)c(F)c4)C(=O)N2C1)N1CC/C=C\C[C@@H](C1=O)N(C)C(=O)CN(C)C(=O)[C@H]([C@@H](C)CC)NC3=O [PP2952] |  |  | NRAS/KRAS (ratio of KD value with respect to GDP-bound NRAS wild-type protein to KD value with respect to KRAS) ([1]; class symbols): AA (a compound having 20 or more is denoted as AA); HRAS/KRAS (ratio of KD value with respect to GDP-bound HRAS wild-type protein to KD value with respect to KRAS) ([2]; class symbols): A (a compound having 10 or more and less than 20 is denoted as A)
CCCN1C(=O)CN(C)C(=O)CNC(=O)[C@H]([C@@H](C)CC)NC(=O)[C@H](CC(C)C)N(C)C(=O)C[C@@H](C(=O)N2CCOCC2)N(C)C(=O)[C@H](C2CCCC2)N(C)C(=O)C2(CCCC2)NC(=O)[C@@H]2C[C@@H](OCC)CN2C(=O)[C@H](CCc2ccc(C(F)(F)F)c(Cl)c2)NC(=O)CN(C)C(=O)[C@@H]1Cc1ccc(C(F)(F)F)cc1 [PP0396] ([NMeL]IG[Sar][NPrPhe(4-CF3)][Sar][hPhe(3-Cl-4-CF3)][Hyp](Et)[Ac5c][NMeGly(cPent)][NMeD]-Morpholide; lactam N-11) | B (a compound having 3 or more and less than 10 is denoted as B) | C (A compound having a KD ratio of 0.1 or more and less than 3 is denoted as C) | 
CCCN1C(=O)CN(C)C(=O)CN(CC)C(=O)[C@H]([C@@H](C)CC)NC(=O)[C@H](CC(C)C)N(C)C(=O)C[C@@H](C(=O)N2CCOCC2)N(C)C(=O)[C@H](C2CCCC2)N(C)C(=O)C2(CCC2)NC(=O)[C@@H]2CC(F)(F)CN2C(=O)[C@H](CCc2ccc(C(F)(F)F)c(Cl)c2)NC(=O)CN(C)C(=O)[C@@H]1Cc1ccc(C(F)(F)F)cc1 [PP0400] ([NMeL]I[NEtG][Sar][NPrPhe(4-CF3)][Sar][hPhe(3-Cl-4-CF3)][Pro(4,4-F2)][Ac4c][NMeGly(cPent)][NMeD]-Morpholide; lactam N-11) | B (a compound having 3 or more and less than 10 is denoted as B) | B (a compound having 3 or more and less than 10 is denoted as B) | 
C=CC[C@H]1C(=O)N(CC=C)[C@@H](Cc2ccc(C)cc2)C(=O)N(C)CC(=O)N[C@@H](CCc2ccc(C(F)(F)F)c(Cl)c2)C(=O)N2CCC[C@H]2C(=O)NC2(CCCC2)C(=O)N(C)[C@@H](C2CCCC2)C(=O)N(C)[C@H](C(=O)N2CCOCC2)CC(=O)N(C)[C@@H](CC(C)C)C(=O)N[C@@H]([C@@H](C)CC)C(=O)N(C)CC(=O)N1C [PP0139] ([NMeL]I[Sar][NMeAllylGly][X50][Sar][hPhe(3-Cl-4-CF3)]P[Ac5c][NMeGly(cPent)][NMeD]-Morpholide; lactam N-11) | C (A compound having a KD ratio of 0.1 or more and less than 3 is denoted as C) | C (A compound having a KD ratio of 0.1 or more and less than 3 is denoted as C) | 
